From US20100179173A1, “SUBSTITUTED FUSED PYRIMIDINES AS ANTAGONISTS OF GPR105 ACTIVITY” (priority 2007, published 2010) come the findings set out here.

The structures appear in SMILES notation.

This test has as its target T1, chimpanzee GPR105 protein (Pan troglodytes, UniProt A0A2J8P2M1).
T1 construct: expressed in transfected cells
T1 sequence (A0A2J8P2M1 1-338): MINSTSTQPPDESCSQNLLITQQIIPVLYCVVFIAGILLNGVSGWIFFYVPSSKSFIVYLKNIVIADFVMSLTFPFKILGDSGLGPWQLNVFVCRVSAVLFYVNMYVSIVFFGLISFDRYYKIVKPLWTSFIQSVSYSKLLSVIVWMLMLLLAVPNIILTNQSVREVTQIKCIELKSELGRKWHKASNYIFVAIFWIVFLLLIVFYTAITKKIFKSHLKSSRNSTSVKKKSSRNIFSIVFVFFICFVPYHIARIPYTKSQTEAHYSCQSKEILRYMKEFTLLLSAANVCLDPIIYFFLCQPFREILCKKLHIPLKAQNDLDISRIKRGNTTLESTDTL
The experiment in a line: Cell-Binding Assay: inhibition of UDP-glucose-induced Ca2+ signaling (FLIPR) in HEK/GPR105/Gqi5 cells. In kind it is cell-based. The conditions noted are these: HEK cells expressing chimpanzee GPR105 and Gqi5, UDP-glucose agonist at EC80. How it is done:
A stable HEK clonal cell line expressing the chimpanzee GPR105 protein and the chimeric G protein Gqi5 was developed. The chimeric Gqi5 forces the coupling of GPR105 through the Gq (calcium) pathway and allows for monitoring of calcium signaling using a calcium binding fluorescent dye and the FLIPR (fluorometric imaging plate reader, MDS Sciex). […] Cells were incubated overnight at 37° C. and 5% CO2 to form a monolayer. On the following day, 30 μL of fluorescent no-wash dye was added to the cell monolayer and the plate was incubated for 60 min at 37° C., 5% CO2. […] of compound in 100% DMSO was added to cell/dye incubation using acoustic dispensing (Echo™, Labcyte). Following a 20 minute incubation of compound at room temperature, 6.25 μL of UDP-glucose agonist (at EC80) in Hank's Balanced Salt Solution (HBSS) containing 20 mM Hepes was added to cells and Ca^2+ signaling was monitored by FLIPR. Quantitation of the % inhibition of Ca^2+ signaling by antagonist was calculated using the maximum fluorescent signal detected. IC50's for the compounds of structural formula (I) were calculated as follows: […]
Molecule `CCc1cc(NC(=O)N2CCc3nc(-c4cccnc4)nc(-c4ccccc4C)c3C2)cc(-c2cn(C)cn2)c1` yielded an IC50 of 5.6 nM.
The same measure for `Cc1ccccc1-c1nc(-c2cccnc2)nc2c1CN(C(=O)Nc1cccc(-c3ccc(C(N)=O)cc3)c1)CC2`: 18.4 nM; for `CCc1cc(NC(=O)N2CCc3nc(-c4cccnc4)nc(-c4ccccc4C)c3C2)cc(-c2ccc(C(=O)O)cc2)c1`: 4 nM; for `CCc1cc(NC(=O)N2CCc3nc(-c4cccnc4)nc(-c4ccccc4C)c3C2)cc(Oc2ccccc2)c1`: 8.1 nM.
The same measure for `CCc1cc(Cl)cc(NC(=O)N2CCc3nc(-c4cncnc4)nc(-c4ccccc4C)c3C2)c1`: 10.5 nM; for `CCc1cccc(NC(=O)N2CCc3nc(-c4ccnc(F)c4)nc(-c4ccccc4C)c3C2)c1`: 12 nM; for `CCc1cccc(NC(=O)N2CCc3nc(-c4cscc4C)nc(-c4ccccc4C)c3C2)c1`: 65.1 nM.
The same measure for `CCc1cncc(NC(=O)N2CCc3nc(-c4cccnc4)nc(-c4ccccc4C)c3C2)c1`: 55.7 nM.
`CCc1cccc(NC(=O)N2CCc3nc(-c4ccnn4C)nc(-c4ccccc4C)c3C2)c1` showed an IC50 of 34.5 nM.
`CCc1cccc(NC(=O)N2CCc3nc(-c4ccc(C#N)nc4)nc(-c4ccccc4C)c3C2)c1` showed an IC50 of 7.8 nM.

A word on the IC50: it is the concentration that gives 50% inhibition. Low readings indicate greater potency, high ones weaker potency.
